The source made the active and inactive calls.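 Rule for the calls: active = at least one rat sex group has a carcinogenic potency value and tumor site recorded; inconclusive = only rat studies were judged inadequate by the national testing program; inactive = no potency or tumor site, with negative rat experiments.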
System: rat chronic carcinogenicity bioassay, TD50
Test: DSSTox (CPDBAS) Carcinogenic Potency Database Summary Rat Bioassay Results
Details: for Potency: hits give low values; for outcome: TD50_Rat_Note: no positive results
How it was run: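 Chronic long-term rat cancer bioassays from literature and NCI/NTP, taking the most positive result per sex. TD50 in mmol converted to a 1–100 Activity Score from log10(1/TD50). Mixtures lacking TD50 scored 50.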

[1] = TargetSites_Rat_Female: no positive results
[2] = TD50_Rat_Note: TD50 is harmonic mean of more than one positive test, TargetSites_Rat_Female: liver

CN(CC(O)CO)N=O (stereo not given)
Potency (TargetSites_Rat_Female: esophagus, liver, lung, nasal cavity): 0.646 mg/kg/day

CC(C)(C)O
Potency [1]: 64.6 mg/kg/day

O=[N+]([O-])c1cc(N(CCO)CCO)ccc1NCCO
outcome [1]: inactive; no positive results

CC(=O)Oc1c(C)c(C)c2c(c1C)CCC(C)(CCCC(C)CCCC(C)CCCC(C)C)O2 (stereo not given)
outcome [1]: inactive; no positive results

OCC(CO)N[C@H]1C[C@](O)(CO)[C@@H](O)[C@H](O)[C@H]1O
outcome [1]: inactive; no positive results

COc1ccc(N)cc1
outcome [1]: inactive; no positive results

O=C(O)CC(O)(CC(=O)O)C(=O)O
outcome: inactive; no positive results

CN[C@H]1CC[C@@H](c2ccc(Cl)c(Cl)c2)c2ccccc21
outcome [1]: inactive

CCNC(=O)N(CCN(C)C)N=O
Potency (TargetSites_Rat_Female: mammary gland, uterus): 0.704 mg/kg/day

CCC1(CCC(C)C)C(=O)NC(=O)NC1=O
outcome: inactive; no positive results

COc1cc2c(c3oc(=O)c4c(c13)CC[C@H]4O)[C@@H]1C=CO[C@H]1O2
Potency: 0.00247 mg/kg/day

O=[N+]([O-])c1ccc(-c2nc(NCCO)c3ccccc3n2)s1
Potency (TargetSites_Rat_Female: all tumor bearing animals): 1.87 mg/kg/day

Nc1cccc(N)c1
outcome: inactive; no positive results

CCC[CH2][Sn]([CH2]CCC)([CH2]CCC)[O][Sn]([CH2]CCC)([CH2]CCC)[CH2]CCC
outcome [1]: inactive; no positive results

O=P(O)(OCC(Br)CBr)OCC(Br)CBr (stereo not given)
Potency (TD50_Rat_Note: TD50 is harmonic mean of more than one positive test, TargetSites_Rat_Female: esophagus, liver, small intestine, stomach): 32 mg/kg/day

CCN(CC)C(=O)c1cccc(C)c1
outcome [1]: inactive; no positive results

Cc1cn([C@H]2C[C@H](N=[N+]=[N-])[C@@H](CO)O2)c(=O)[nH]c1=O
Potency (TargetSites_Rat_Female: vagina): 11600 mg/kg/day

O=NN1CC(=O)NC1=O
Potency (TD50_Rat_Note: TD50 is harmonic mean of more than one positive test, TargetSites_Rat_Female: all tumor bearing animals): 43.8 mg/kg/day

Clc1cc2c(c(Cl)c1Cl)Oc1c(cc(Cl)c(Cl)c1Cl)O2
Potency (TargetSites_Rat_Female: liver): 0.000596 mg/kg/day

Nc1ccc([N+](=O)[O-])cc1N
outcome [1]: inactive; no positive results

Cc1c(C)c2c(c(C)c1O)CCC(C)(CCCC(C)CCCC(C)CCCC(C)C)O2 (stereo not given)
outcome [1]: inactive; no positive results

COc1ccccc1N1CCN(CCCNc2cc(=O)n(C)c(=O)n2C)CC1
outcome [1]: inactive; no positive results

C=CC=C
Potency (TD50_Rat_Note: TD50 is harmonic mean of more than one positive test, greater than ten-fold variation among TD50 values for positive res, TargetSites_Rat_Female: mammary gland): 261 mg/kg/day

O=Nc1ccc(NO)cc1
Potency (TargetSites_Rat_Female: urinary bladder): 106 mg/kg/day

C/C=C1/C[C@@H](C)[C@](O)(CO)C(=O)OCC2=CCN3CC[C@@H](OC1=O)[C@@H]23
Potency: 0.862 mg/kg/day

Nc1cc(S(=O)(=O)O)cc2cc(S(=O)(=O)O)c(N=Nc3ccc(-c4ccc(N=Nc5c(S(=O)(=O)O)cc6cc(S(=O)(=O)O)cc(N)c6c5O)cc4)cc3)c(O)c12
Potency [2]: 1.73 mg/kg/day

IC(I)I
outcome [1]: inactive; no positive results

CCCCC(CC)COC(=O)c1ccccc1C(=O)OCC(CC)CCCC (stereo not given)
Potency [2]: 716 mg/kg/day

Cc1cc(C(C)(C)C)c(O)c(C(C)(C)C)c1
outcome [1]: inactive; no positive results

O=C(Nc1nc(-c2ccc([N+](=O)[O-])o2)cs1)C(F)(F)F
Potency (TargetSites_Rat_Female: mammary gland): 6.79 mg/kg/day

C/C=C/C=C/C=O
Potency (TD50_Rat_Note: TD50 is harmonic mean of more than one positive test, TargetSites_Rat_Female: stomach): 62.2 mg/kg/day

C=C1C[C@@]23CC[C@H]4[C@@](C)(CCC[C@@]4(C)C(=O)O[C@@H]4O[C@H](CO)[C@@H](O)[C@H](O)[C@H]4O)[C@@H]2CC[C@]1(O[C@@H]1O[C@H](CO)[C@@H](O)[C@H](O)[C@H]1O[C@@H]1O[C@H](CO)[C@@H](O)[C@H](O)[C@H]1O)C3
outcome [1]: inactive; no positive results

CC1=C(C)C(=O)C(C(CCCCCC(=O)O)c2ccccc2)=C(C)C1=O (stereo not given)
outcome [1]: inactive; no positive results

O=C(O)CCC(=O)O
outcome [1]: inactive; no positive results

CCn1c2ccccc2c2cc(N)ccc21
Potency (TD50_Rat_Note: TD50 is harmonic mean of more than one positive test, TD50_Rat_mmol was not calculated for this mixture, but Activiity S, TargetSites_Rat_Female: ear Zymbals gland): 26.4 mg/kg/day
Potency (TD50_Rat_Note: TD50 is harmonic mean of more than one positive test, TargetSites_Rat_Female: ear Zymbals gland, liver, uterus): 57.2 mg/kg/day

CCN(Cc1cccc(S(=O)(=O)[O-])c1)c1ccc(C(=C2C=CC(=[N+](C)C)C=C2)c2ccc(N(CC)Cc3cccc(S(=O)(=O)O)c3)cc2)cc1
Potency (TD50_Rat_Note: TD50 is harmonic mean of more than one positive test, TargetSites_Rat_Female: mammary gland, skin): 612 mg/kg/day

O=[N+]([O-])OCC(CO[N+](=O)[O-])O[N+](=O)[O-]
Potency [2]: 183 mg/kg/day

Clc1cc(Cl)cc(-c2cc(Cl)cc(Cl)c2)c1
outcome [1]: inactive

CCN(CC)c1ccc(N=Nc2cc[n+]([O-])cc2)cc1
Potency (TD50_Rat_Note: TD50 value is overestimated as upper 99% confidence limit from study with 100% tumor incidence but no lifetable, harmoni): 1.63 mg/kg/day
